Measurements: patent US20120010075A1 (priority 2009, published 2012)
Where two headings read alike, the source gives them in different places.

Key:
Phytophthora infestans = format: in vivo, Phytophthora infestans on tomato; conditions: applied 24 h before inoculation, assessed 7 days after inoculation
[1] = system: Leptosphaeria nodorum (LEPTNO); assay: In vitro fungitoxicity of hydrazones with and without copper towards Leptosphaeria nodorum (Example 26); format: cell-based; conditions: for inhibition of growth at 0.05 µg/mL: Parastagonospora nodorum, 72 h, read-out: LEPTNO % Inhn. Minus Copper Observed
[2] = hydrazone 50 ppm + 50 μM CuCl2.2H2O, tomato
[3] = compound 0.05 μg/mL, copper-minus medium, 72 h at 25° C.
[4] = compound 0.05 μg/mL, copper-plus medium (CuCl2.2H2O), 72 h at 25° C.
[5] = hydrazone 50 ppm with 50 μM CuCl2.2H2O, tomato late blight
[6] = copper-minus medium, test compound Concn. 0.05 μg/mL, 72 h at 25° C.
[7] = copper-plus medium (CuCl2 10 μM), test compound Concn. 0.05 μg/mL, 72 h at 25° C.

Compound | TLB % Control (Phytophthora infestans; [2]) [%] | inhibition of growth at 0.05 µg/mL [1, 3] [%] | LEPTNO % Inhn. Plus Copper Observed [1, 4] [%] | TLB % Control (Phytophthora infestans; [5]) [%] | inhibition of growth at 0.05 µg/mL [1, 6] [%] | LEPTNO % Inhn. Plus Copper Observed [1, 7] [%] | inhibition of growth at 0.05 µg/mL [1] [%] | LEPTNO % Inhn. Minus Copper Observed [1, 3] [%]
O=C(N/N=C/c1c(O)ccc2ccccc12)c1ccccc1 [Example 4] | 67.8 | 4.4 | 94.5 | – | – | – | – | –
O=C(N/N=C/c1cc(Cl)cc(Cl)c1O)c1ccc(Cl)cc1Cl [Example 78] | 70.9 | 7.9 | 96.3 | – | – | – | – | –
C/C(=N\NC(=O)c1cccc([N+](=O)[O-])c1)c1ccccc1O [Example 37] | 33.0 | 3.3 | 97.0 | – | – | – | – | –
CN(C)c1ccc(C(=O)N/N=C/c2cc(Cl)cc(Cl)c2O)cc1 [Example 103] | 63.2 | 17.9 | 98.1 | – | – | – | – | –
C/C(=N\NC(=O)c1ccccc1N)c1ccccc1O [Example 51] | 4.8 | 0 | 97.6 | – | – | – | – | –
C/C(=N\NC(=O)Cc1ccccc1)c1ccccc1O [Example 128] | 38.0 | 10.8 | 88.6 | – | – | – | – | –
C/C(=N\NC(=O)c1ccc2ccccc2c1O)c1cc(Cl)cc(Cl)c1O [Example 480] | – | – | – | 4.7 | 9.5 | 95.3 | – | –
O=C(N/N=C/c1cc(Cl)ccc1O)c1ccc(Br)cc1 [Example 191] | 29.8 | 15.4 | 98.1 | – | – | – | – | –
COc1ccc(O)c(/C=N/NC(=O)c2ccccc2)c1 [Example 154] | 36.6 | 3.4 | 70.7 | – | – | – | – | –
COc1cccc(C(=O)N/N=C/c2cc(Cl)ccc2O)c1 [Example 188] | 74.6 | 7.9 | 96.5 | – | – | – | – | –
O=C(N/N=C/c1cccc([N+](=O)[O-])c1O)c1ccccc1 [Example 145] | 55.9 | 2.4 | 97.2 | – | – | – | – | –
O=C(N/N=C/c1ccccc1O)c1cccc(Cl)c1 [Example 175] | 80.0 | 4.9 | 97.9 | – | – | – | – | –
C/C(=N\NC(=O)c1cccc(F)c1)c1ccccc1O [Example 25] | 35.1 | 0 | 97.3 | – | – | – | – | –
C/C(=N\NC(=O)c1ccccc1Cl)c1ccccc1O [Example 212] | 14.0 | 0 | 95.2 | – | – | – | – | –
COc1cccc(C(=O)N/N=C/c2cc(Cl)cc(Cl)c2O)c1 [Example 82] | 60.6 | 8.4 | 97.4 | – | – | – | – | –
O=C(N/N=C/c1cc([N+](=O)[O-])cc(Br)c1O)c1ccccc1 [Example 153] | 34.6 | 0 | 97.0 | – | – | – | – | –
O=C(N/N=C/c1ccc(Cl)cc1O)c1cccc(Cl)c1 [Example 391] | – | – | – | 92.0 | 6 | 96.9 | – | –
O=C(N/N=C/c1cc(Cl)ccc1O)c1ccc(C(F)(F)F)cc1 [Example 187] | 92.7 | – | 97.5 | – | – | – | 20.7 | –
Cc1cccc(C(=O)N/N=C/c2ccccc2O)c1 [Example 174] | 72.7 | 0 | 97.0 | – | – | – | – | –
Cc1ccc(C(=O)N/N=C/c2ccccc2O)cc1 [Example 8] | 59.6 | 0 | 92.6 | – | – | – | – | –
C/C(=N\NC(=O)c1ccc(C(C)C)cc1)c1ccccc1O [Example 40] | 64.9 | 0 | 94.8 | – | – | – | – | –
O=C(N/N=C/c1cc(Cl)ccc1O)c1cccc(Br)c1 [Example 181] | 90.5 | 16 | 97.6 | – | – | – | – | –
C/C(=N\NC(=O)c1ccc([N+](=O)[O-])cc1)c1ccccc1O [Example 215] | 37.0 | 0.5 | 98.6 | – | – | – | – | –
O=C(N/N=C/c1cc(Cl)cc(Cl)c1O)c1ccc(F)cc1 [Example 22] | 93.2 | 16 | 97.6 | – | – | – | – | –
C/C(=N\NC(=O)c1ccc(C)cc1)c1ccccc1O [Example 36] | 33.9 | 5.9 | 98.4 | – | – | – | – | –

Compound | TLB % Control (Phytophthora infestans; [2]) [%] | inhibition of growth at 0.05 µg/mL [1, 3] [%] | LEPTNO % Inhn. Plus Copper Observed [1, 4] [%] | TLB % Control (Phytophthora infestans; [5]) [%] | inhibition of growth at 0.05 µg/mL [1, 6] [%] | LEPTNO % Inhn. Plus Copper Observed [1, 7] [%] | inhibition of growth at 0.05 µg/mL [1] [%] | LEPTNO % Inhn. Minus Copper Observed [1, 3] [%]
CCOc1ccc(C(=O)N/N=C/c2cc(Br)cc(Br)c2O)cc1 [Example 104] | 70.2 | 27.7 | 98.2 | – | – | – | – | –
C/C(=N\NC(=O)c1cc(C)cc(C)c1)c1ccccc1O [Example 39] | 18.6 | 1.3 | 97.9 | – | – | – | – | –
Cc1ccc(C(=O)N/N=C/c2cc(Cl)cc(Cl)c2O)cc1 [Example 72] | 81.3 | 14.1 | 91.3 | – | – | – | – | –
Cc1ccc(C(=O)N/N=C/c2cc([N+](=O)[O-])cc(Br)c2O)cc1 [Example 202] | 49.1 | 2 | 96.6 | – | – | – | – | –
O=C(N/N=C/c1cc(Br)cc(Br)c1O)c1ccc(OC(F)(F)F)cc1 [Example 109] | 89.1 | 27.8 | 98.3 | – | – | – | – | –
O=C(N/N=C/c1cc(Br)cc(Br)c1O)c1cccc(Br)c1 [Example 113] | 94.7 | 17 | 98.0 | – | – | – | – | –
Cc1cccc(C(=O)N/N=C/c2cc(Cl)cc(Cl)c2O)c1 [Example 95] | 81.2 | 14.1 | 94.0 | – | – | – | – | –
O=C(N/N=C/c1cc(Br)ccc1O)c1ccc(Cl)cc1 [Example 171] | 15.8 | 4 | 98.3 | – | – | – | – | –
O=C(N/N=C/c1cc(Br)ccc1O)c1cccc(Cl)c1 [Example 176] | 61.4 | 8.8 | 98.2 | – | – | – | – | –
C/C(=N\NC(=O)c1ccccc1[N+](=O)[O-])c1ccccc1O [Example 127] | 40.0 | 0 | 97.1 | – | – | – | – | –
O=C(N/N=C/c1cc(Cl)cc([N+](=O)[O-])c1O)c1ccccc1 [Example 150] | 87.5 | 10 | 97.5 | – | – | – | – | –
COc1cc(OC)cc(C(=O)N/N=C/c2cc(Cl)cc(Cl)c2O)c1 [Example 88] | 4.8 | 10.7 | 96.7 | – | – | – | – | –
O=C(N/N=C/c1cc(Cl)cc(Br)c1O)c1ccccc1F [Example 169] | 78.9 | 2.7 | 98.1 | – | – | – | – | –
C/C(=N\NC(=O)c1ccc(Cl)cc1)c1ccccc1O [Example 54] | 17.0 | 0 | 95.7 | – | – | – | – | –
Cc1ccc(C(=O)N/N=C/c2cc(Br)ccc2O)cc1 [Example 179] | 35.1 | 18.7 | 98.0 | – | – | – | – | –
O=C(N/N=C/c1cc(Br)ccc1O)c1ccc2c(c1)OCO2 [Example 7] | 54.6 | 2.6 | 97.2 | – | – | – | – | –
C/C(=N\NC(=O)c1cccc(Br)c1)c1ccccc1O [Example 63] | 40.4 | 0 | 96.7 | – | – | – | – | –
COc1cccc(C(=O)N/N=C(\C)c2ccccc2O)c1 [Example 53] | 62.0 | 0 | 96.8 | – | – | – | – | –
C/C(=N\NC(=O)c1ccccc1Br)c1ccccc1O [Example 64] | 43.0 | 0 | 97.8 | – | – | – | – | –
C/C(=N\NC(=O)c1cccc(I)c1)c1ccccc1O [Example 26] | 12.3 | – | 98.4 | – | – | – | – | 2.1
O=C(N/N=C/c1cc(Cl)cc(Cl)c1O)c1ccccc1Oc1ccccc1 [Example 90] | 54.6 | 9.5 | 96.4 | – | – | – | – | –
O=C(N/N=C/c1cc(Cl)cc(Cl)c1O)c1ccc(Br)cc1 [Example 80] | 91.5 | 0 | 98.4 | – | – | – | – | –
O=C(N/N=C/c1cc(Br)ccc1O)c1ccccc1Oc1ccccc1 [Example 19] | 25.0 | 2.9 | 88.8 | – | – | – | – | –
Cc1cccc(C(=O)N/N=C/c2cc(Cl)cc(Br)c2O)c1 [Example 194] | 80.4 | – | 96.9 | – | – | – | 16.1 | –
COc1cc(Br)cc(/C=N/NC(=O)c2ccc(Cl)cc2)c1O [Example 205] | 78.9 | 15.4 | 97.2 | – | – | – | – | –
